Active and inactive are the calls of the source. The rule behind the calls is not given here.
Assays:
[1] = target: Acetylcholinesterase (Electrophorus electricus, UniProt O42275); assay: Inhibition of electric eel AChE preincubated for 15 mins by Ellman's method
[2] = target: Amyloid-beta precursor protein (Homo sapiens) (UniProt P05067); assay: Inhibition of amyloid beta (1-42) self-mediated aggregation (unknown origin) at 20 uM after 48 hrs by thioflavin T fluorescence method
[3] = target: Butyrylcholinesterase (Equus caballus, UniProt Q9N1N9)
Description: Inhibition of equine BChE preincubated for 15 mins by Ellman's method

[4] = target: Acetylcholinesterase (Homo sapiens, UniProt P22303); assay: Inhibition of human erythrocyte AChE preincubated for 15 mins by Ellman's method
[5] = target: Amyloid-beta precursor protein (Homo sapiens) (UniProt P05067); assay: Inhibition of amyloid beta (1-42) (unknown origin) fibril formation at 20 uM after 24 hrs by transmission electron microscopy
[6] = target: Amyloid-beta precursor protein (Homo sapiens) (UniProt P05067); assay: Disaggregation of amyloid beta (1-42) fibrils (unknown origin) at 20 uM after 24 hrs by thioflavin T fluorescence method
[7] = target: Amyloid-beta precursor protein (Homo sapiens) (UniProt P05067); assay: Disaggregation of amyloid beta (1-42) fibrils (unknown origin) at 20 uM after 24 hrs by transmission electron microscopy

Chain of Butyrylcholinesterase (Q9N1N9 whole entry): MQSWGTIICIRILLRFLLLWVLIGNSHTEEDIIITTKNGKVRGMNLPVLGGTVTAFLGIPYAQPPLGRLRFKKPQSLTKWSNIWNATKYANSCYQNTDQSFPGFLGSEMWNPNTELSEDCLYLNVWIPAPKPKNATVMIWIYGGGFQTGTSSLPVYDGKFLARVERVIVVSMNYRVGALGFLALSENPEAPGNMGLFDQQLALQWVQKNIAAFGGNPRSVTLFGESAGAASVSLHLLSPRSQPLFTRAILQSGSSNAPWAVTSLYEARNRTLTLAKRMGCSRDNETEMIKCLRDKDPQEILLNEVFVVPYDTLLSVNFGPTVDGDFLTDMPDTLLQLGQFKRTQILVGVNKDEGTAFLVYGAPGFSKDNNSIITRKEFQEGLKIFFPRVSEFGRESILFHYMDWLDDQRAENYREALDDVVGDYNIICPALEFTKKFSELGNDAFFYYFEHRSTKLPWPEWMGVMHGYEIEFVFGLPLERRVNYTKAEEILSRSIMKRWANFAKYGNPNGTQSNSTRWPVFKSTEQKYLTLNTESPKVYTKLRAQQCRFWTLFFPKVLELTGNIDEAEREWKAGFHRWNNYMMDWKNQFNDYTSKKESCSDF
Chain of Acetylcholinesterase (Electrophorus electricus, UniProt O42275) (O42275 whole entry): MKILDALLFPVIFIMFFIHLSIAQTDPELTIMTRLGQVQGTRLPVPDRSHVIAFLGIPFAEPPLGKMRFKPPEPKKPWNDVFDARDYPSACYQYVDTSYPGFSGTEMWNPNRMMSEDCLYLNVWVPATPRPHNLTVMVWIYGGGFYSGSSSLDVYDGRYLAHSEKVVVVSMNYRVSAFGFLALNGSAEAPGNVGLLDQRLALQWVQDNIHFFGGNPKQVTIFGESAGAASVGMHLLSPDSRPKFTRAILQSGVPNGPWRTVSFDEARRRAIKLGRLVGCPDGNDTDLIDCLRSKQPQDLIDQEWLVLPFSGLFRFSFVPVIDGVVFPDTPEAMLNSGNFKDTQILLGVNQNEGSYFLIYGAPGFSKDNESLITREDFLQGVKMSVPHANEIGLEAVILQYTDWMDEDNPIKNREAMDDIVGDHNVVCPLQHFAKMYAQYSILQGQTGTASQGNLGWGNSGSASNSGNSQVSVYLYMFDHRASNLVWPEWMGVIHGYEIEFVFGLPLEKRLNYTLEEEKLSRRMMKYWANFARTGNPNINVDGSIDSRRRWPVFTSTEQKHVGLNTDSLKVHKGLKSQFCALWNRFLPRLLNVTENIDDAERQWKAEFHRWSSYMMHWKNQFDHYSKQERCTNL
Chain of Acetylcholinesterase (Homo sapiens, UniProt P22303) (P22303 whole entry): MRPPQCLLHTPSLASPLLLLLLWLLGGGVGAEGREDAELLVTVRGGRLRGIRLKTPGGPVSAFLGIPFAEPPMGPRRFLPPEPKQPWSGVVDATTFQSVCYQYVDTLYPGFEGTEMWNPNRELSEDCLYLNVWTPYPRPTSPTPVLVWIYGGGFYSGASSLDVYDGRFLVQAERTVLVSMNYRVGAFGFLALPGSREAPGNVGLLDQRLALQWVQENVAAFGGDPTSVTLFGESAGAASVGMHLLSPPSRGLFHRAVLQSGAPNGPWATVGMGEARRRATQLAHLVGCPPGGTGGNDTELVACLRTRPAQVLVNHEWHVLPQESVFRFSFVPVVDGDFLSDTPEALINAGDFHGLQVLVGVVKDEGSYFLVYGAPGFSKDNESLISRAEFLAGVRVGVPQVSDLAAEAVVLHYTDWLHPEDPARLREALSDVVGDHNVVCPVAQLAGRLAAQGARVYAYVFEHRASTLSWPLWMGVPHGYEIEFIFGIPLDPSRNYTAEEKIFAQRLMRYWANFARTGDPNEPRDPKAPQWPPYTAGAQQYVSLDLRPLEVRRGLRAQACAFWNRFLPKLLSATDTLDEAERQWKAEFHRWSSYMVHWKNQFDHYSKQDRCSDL
Chain of Amyloid-beta precursor protein (Homo sapiens) (P05067 whole entry): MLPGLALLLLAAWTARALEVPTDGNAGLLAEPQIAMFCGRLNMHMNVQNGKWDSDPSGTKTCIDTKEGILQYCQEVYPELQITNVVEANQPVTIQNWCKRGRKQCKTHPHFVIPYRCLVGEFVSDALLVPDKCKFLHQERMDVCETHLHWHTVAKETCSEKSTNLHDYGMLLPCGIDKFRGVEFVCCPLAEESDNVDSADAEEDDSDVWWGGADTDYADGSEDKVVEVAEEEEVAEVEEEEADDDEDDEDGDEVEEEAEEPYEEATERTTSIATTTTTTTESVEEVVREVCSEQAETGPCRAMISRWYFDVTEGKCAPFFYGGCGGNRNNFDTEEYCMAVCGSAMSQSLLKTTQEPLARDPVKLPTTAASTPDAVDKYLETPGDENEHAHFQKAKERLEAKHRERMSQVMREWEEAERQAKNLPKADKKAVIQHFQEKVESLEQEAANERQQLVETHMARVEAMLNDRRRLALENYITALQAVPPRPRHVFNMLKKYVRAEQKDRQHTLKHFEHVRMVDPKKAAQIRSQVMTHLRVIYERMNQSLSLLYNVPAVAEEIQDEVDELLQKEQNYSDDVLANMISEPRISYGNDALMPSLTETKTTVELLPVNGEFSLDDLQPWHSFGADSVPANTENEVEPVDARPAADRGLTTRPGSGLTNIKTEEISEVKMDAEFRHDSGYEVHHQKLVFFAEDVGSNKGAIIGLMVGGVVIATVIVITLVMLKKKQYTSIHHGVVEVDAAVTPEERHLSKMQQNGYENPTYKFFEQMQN

Compound | IC50 [1] | inhibition [2] | IC50 [3] | IC50 [4] | inhibition [5] | Activity [6] | Activity [7]
COc1ccc(/C=C2\Cc3cc(OC)c(OCCN4CCCCC4)cc3C2=O)cc1 | 14.8 nM | inactive | 3210 nM |  |  |  | 
CCCN(CCC)c1ccc(/C=C2\Cc3cc(OC)c(OCCN4CCCCC4)cc3C2=O)cc1 | 14.6 nM |  | 1770 nM | 954 nM |  |  | 
COc1cc2c(cc1OCCCCCN1CCCCC1)C(=O)/C(=C/c1ccc(N(C)C)cc1)C2 | 1030 nM |  | 2440 nM |  |  |  | 
COc1cc2c(cc1OCCCCNC1CCCCC1)C(=O)/C(=C/c1ccc(N(C)C)cc1)C2 | 9180 nM |  | 1130 nM |  |  |  | 
CCCN(C)c1ccc(/C=C2\Cc3cc(OC)c(OCCN4CCCCC4)cc3C2=O)cc1 | 18.6 nM | 83.8% | 1420 nM | 390 nM | Active | 73.8% | Active
CCN(CC)c1ccc(/C=C2\Cc3cc(OC)c(OCCCN4CCCCC4)cc3C2=O)cc1 | 371 nM |  | 2820 nM |  |  |  | 
CNc1ccc(/C=C2\Cc3cc(OC)c(OCCN4CCCCC4)cc3C2=O)cc1 | 16.8 nM |  | 1640 nM | 301 nM |  |  | 
CCN(CC)c1ccc(/C=C2\Cc3cc(OC)c(OCCN4CCCCC4)cc3C2=O)cc1 | 14.8 nM | 85.5% | 1380 nM | 536 nM | Active | 65% | Active
CCN(C)c1ccc(/C=C2\Cc3cc(OC)c(OCCN4CCCCC4)cc3C2=O)cc1 | 25.5 nM | 85.2% | 1270 nM | 426 nM |  |  | 
COc1cc2c(cc1OCCCN1CCCCC1)C(=O)/C(=C/c1ccc(N(C)C)cc1)C2 | 330 nM |  | 1460 nM |  |  |  | 
COc1cc2c(cc1OCCNC1CCCCC1)C(=O)/C(=C/c1ccc(N(C)C)cc1)C2 | 102 nM | 84.3% | 363 nM |  |  |  | 
COc1cc2c(cc1OCCN1CCCCC1)C(=O)/C(=C/c1ccc(N(C)C)cc1)C2 | 16.5 nM |  | 1490 nM | 285 nM |  |  | 
CCN(CC)c1ccc(/C=C2\Cc3cc(OC)c(OCCCCCN4CCCCC4)cc3C2=O)cc1 | 5730 nM |  | 2840 nM |  |  |  | 
COc1cc2c(cc1OCCCNC1CCCCC1)C(=O)/C(=C/c1ccc(N(C)C)cc1)C2 | 1540 nM |  | 1330 nM |  |  |  | 

— ChEMBL document CHEMBL3351729, “Discovery of indanone derivatives as multi-target-directed ligands against Alzheimer's disease” (Eur J Med Chem, 2014)
